One series has as its target T1, androgen receptor (Homo sapiens, UniProt P10275).
T1 sequence (P10275 1-920 Q868H): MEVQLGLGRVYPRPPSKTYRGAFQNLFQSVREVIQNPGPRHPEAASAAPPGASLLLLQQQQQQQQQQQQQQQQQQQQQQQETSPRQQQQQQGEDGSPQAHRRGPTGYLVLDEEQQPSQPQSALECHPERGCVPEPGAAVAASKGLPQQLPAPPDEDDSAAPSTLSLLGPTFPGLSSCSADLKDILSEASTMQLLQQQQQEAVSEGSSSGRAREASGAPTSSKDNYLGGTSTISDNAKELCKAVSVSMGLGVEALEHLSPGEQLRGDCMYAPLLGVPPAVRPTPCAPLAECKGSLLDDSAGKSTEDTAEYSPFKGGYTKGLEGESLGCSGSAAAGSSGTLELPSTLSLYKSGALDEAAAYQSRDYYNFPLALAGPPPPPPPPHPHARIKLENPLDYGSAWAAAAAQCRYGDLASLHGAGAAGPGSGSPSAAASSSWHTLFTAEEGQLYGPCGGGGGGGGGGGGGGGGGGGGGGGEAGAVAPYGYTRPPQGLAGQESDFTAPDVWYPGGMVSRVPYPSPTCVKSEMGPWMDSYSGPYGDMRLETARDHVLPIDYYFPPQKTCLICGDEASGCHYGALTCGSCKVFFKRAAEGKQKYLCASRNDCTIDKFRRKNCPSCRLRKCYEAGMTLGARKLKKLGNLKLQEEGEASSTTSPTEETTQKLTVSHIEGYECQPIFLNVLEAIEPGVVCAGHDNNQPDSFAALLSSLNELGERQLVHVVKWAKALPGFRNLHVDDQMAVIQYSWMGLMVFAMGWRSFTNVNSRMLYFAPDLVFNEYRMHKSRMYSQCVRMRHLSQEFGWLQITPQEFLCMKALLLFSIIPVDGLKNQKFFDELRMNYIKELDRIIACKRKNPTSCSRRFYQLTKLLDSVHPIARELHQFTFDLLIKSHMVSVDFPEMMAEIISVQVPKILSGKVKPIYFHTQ
The experiment in a line: AR Antagonist Cell Assay (MDA-MB453-MMTV clone 54-19, luciferase reporter). Type of series: cell-based. The settings on record: inhibition of induction by DHT (final concentration at 100 μM), 17 hr, compound 0.32-1000 nM, mean of multiple tests. Put shortly: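 MDA-MB453 breast tumour cells stably carrying an ARE-containing MMTV promoter driving firefly luciferase, plated overnight at 37° C in charcoal-treated serum medium. DHT added (final […]) and incubated 17 hr at 37° C. Luminescence read after adding luciferase buffer; values are means of multiple tests.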
Background: Reporter assays use an easily measured gene product as a stand-in for the process of interest.

The next series deals with T2, hAR (Homo sapiens, UniProt P10275).
T2 sequence (P10275 1-920): T1 sequence (P10275 1-920 Q868H) with H868Q
Description: Competitive binding of 3H-DHT to baculovirus/Sf9 generated hAR extracts. The settings on record: one hour at 4° C., mean of multiple tests. Put shortly:
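Baculovirus/Sf9-expressed hAR extract incubated with test compound, hydroxylapatite and 1 nM 3H-DHT tracer for 1 h at 4° C, then washed free of unbound tracer. Affinity given as concentration inhibiting half of maximal 3H-DHT binding.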

Where [1] appears, read: IC50, concentration at which one half of maximum binding of 1 nM 3H-DHT to hAR is inhibited.
Setting [2] is: concentration at which one half of maximum binding of 1 nM 3H-DHT to hAR is inhibited, read-out: IC50.

Where a chain is given by its changes, count along the chain named. Read-outs that look alike come from different tables or passages of the source.

Turning to `C[C@@H](c1ccc(F)cc1)N1CC(C)(C)[C@@H](Oc2ccc(C#N)c(C(F)(F)F)c2)C1=O` (mixture of isomers) [Example 71, (±)-4-{1-[1-(4-Fluoro-phenyl)-ethyl]-4,4-dimethyl-2-oxo-pyrrolidin-3-yloxy}-2-trifluoromethyl-benzonitrile], the melting point (usually the temperature of the solid-liquid transition) was in the range of 114 to 115 °C.

Turning to `CC1(C)CN(S(=O)(=O)C2CC2)C(=O)C1Oc1ccc(C#N)c(C(F)(F)F)c1` (stereo not drawn) [Example 83, 4-(1-Cyclopropanesulfonyl-4,4-dimethyl-2-oxo-pyrrolidin-3-yloxy)-2-trifluoromethyl-benzonitrile], the IC50 (as a rule, the concentration that gives 50% inhibition) turned out to be 205 nM at androgen receptor (read-out: IC50) and 50 nM at hAR (setting [1]).

Consider `CC1(C)CN(S(=O)(=O)c2cccs2)C(=O)C1Oc1ccc(C#N)c(C(F)(F)F)c1` (stereo not drawn) [Example 93, 4-[4,4-Dimethyl-2-oxo-1-(thiophene-2-sulfonyl)-pyrrolidin-3-yloxy]-2-trifluoromethyl-benzonitrile], for which the IC50 at androgen receptor (read-out: IC50) was over 1000 nM; on hAR (setting [1]) it was 82 nM.

Regarding `COc1ccc(-c2nc(CN3CC(C)(C)C(Oc4ccc(C#N)c(C(F)(F)F)c4)C3=O)no2)cc1` (stereo not drawn) [Example 66, 4-{1-[5-(4-Methoxy-phenyl)-[1,2,4]oxadiazol-3-ylmethyl]-4,4-dimethyl-2-oxo-pyrrolidin-3-yloxy}-2-trifluoromethyl-benzonitrile], the results for the IC50 at androgen receptor and at hAR (setting [2]) were 84 nM and 142 nM, respectively.

Turning to `CC1(C)CN(Cc2nnc(-c3ccccc3Cl)o2)C(=O)C1Oc1ccc(C#N)c(C(F)(F)F)c1` (stereo not drawn) [Example 127, 4-{1-(5-(2-Chloro-phenyl)-[1,3,4]oxadiazol-2-ylmethyl]-4,4-dimethyl-2-oxo-pyrrolidin-3-yloxy}-2-trifluoromethyl-benzonitrile], the values for the IC50 at androgen receptor (read-out: IC50) and on hAR (setting [2]) were over 1000 nM and 198 nM, respectively.

As for `CCCC(C)N1CC(C)(C)C(Oc2ccc(C#N)c(C(F)(F)F)c2)C1=O` (racemic) [Example 72, (±)-4-[4,4-Dimethyl-1-(1-methyl-butyl)-2-oxo-pyrrolidin-3-yloxy]-2-trifluoromethyl-benzonitrile], the values for the IC50 at androgen receptor and on hAR (setting [1]) were 7 nM and 203 nM, respectively.

For `COc1cccc(S(=O)(=O)N2CC(C)(C)C(Oc3ccc(C#N)c(C(F)(F)F)c3)C2=O)c1` (stereo not drawn) [Example 74, 4-[1-(3-Methoxy-benzenesulfonyl)-4,4-dimethyl-2-oxo-pyrrolidin-3-yloxy]-2-trifluoromethyl-benzonitrile], the results for the IC50 against androgen receptor and at hAR (setting [2]) were 96 nM and 106 nM, respectively.

For the compound `CCCCN1CC(C)(C)C(Oc2ccc(C#N)c(C(F)(F)F)c2)C1=O` (stereo not drawn) [Example 19, 4-(1-Butyl-4,4-dimethyl-2-oxo-pyrrolidin-3-yloxy)-2-trifluoromethyl-benzonitrile], the IC50 against androgen receptor stood at 19 nM; on hAR (setting [1]), 152 nM.

As to `CC1(C)CN(Cc2nc(-c3ccc([N+](=O)[O-])cc3)cs2)C(=O)C1Oc1ccc(C#N)c(C(F)(F)F)c1` (stereo not drawn) [Example 65, 4-{4,4-Dimethyl-1-[4-(4-nitro-phenyl)-thiazol-2-ylmethyl]-2-oxo-pyrrolidin-3-yloxy}-2-trifluoromethyl-benzonitrile], the IC50 on androgen receptor (read-out: IC50) turned out to be 228 nM; at hAR (setting [1]), 38 nM.

In the case of `CC(C)OC(=O)c1ccc(CN2CC(C)(C)C(Oc3ccc(C#N)c(C(F)(F)F)c3)C2=O)o1` (stereo not drawn) [Example 27, 5-[3-(4-Cyano-3-trifluoromethyl-phenoxy)-4,4-dimethyl-2-oxo-pyrrolidin-1-ylmethyl]-furan-2-carboxylic acid isopropyl ester], the figures for the IC50 at androgen receptor (read-out: IC50) and on hAR (setting [1]) were 368 nM and 44 nM, respectively.

Turning to `CC1(C)CN(Cc2ccc(-n3cccn3)cc2)C(=O)C1Oc1ccc(C#N)c(C(F)(F)F)c1` (stereo not drawn) [Example 60, 4-[4,4-Dimethyl-2-oxo-1-(4-pyrazol-1-yl-benzyl)-pyrrolidin-3-yloxy]-2-trifluoromethyl-benzonitrile], the IC50 at androgen receptor (read-out: IC50) is over 1000 nM; at hAR (setting [2]), 115 nM.
